Patent US6783774B1 (priority 1990, dated 2004)
“Also recorded” adds a separate entry of the source.

What was measured:
finger scratch bleeding = assay: finger scratched to bleed, substance applied to bleeding site; format: in vivo, human; settings: for black blood coagulation / black color formation: derivatives in powder or gel or liquid form; for stopping of bleeding: powder or gel or liquid form
Text: Myself, finger little scratched, slightly bleeds.

bleeding nostril = assay: nostril bleeding in rat; format: in vivo
[1] = system: massive bleeding of femoral artery; assay: femoral artery bleeding in rat, powder poured topically; format: in vivo
Procedure: Sufficient composition comprising powdered D,L-threo-hex-2-enono-1,4-lactone and excipients stops massive bleeding of femoral artery on contact when femoral artery of a rat is cut off In this case of artery on contact when femoral artery of a rat is cut off. In this case of artery bleeding, it is administered topically by pouring instead of spraying. […] Those white spots indicate the powder that is not yet mixed up with the blood. The gel forms first on the surface of the pond of blood, that stops the fluid moving. If stirring the blood to break through the surface film like structure that keeps the blood fluid from moving when the powder is insufficient, it will bleed again, but much slower than before pouring the powder into the bleeding area; adding sufficient powder into the blood, stirring makes the powder molecules well saturated with the hemoglobin and plasma protein molecules and thus forming the concentrated black gel like structure.

capillary bleeding = capillary bleeding in rat, one capillary cut off; format: in vivo
[2] = system: surgical / dental bleeding; assay: clinical evidence: topical powder on surgical and dental bleeding in patients; format: in vivo, human; settings: person
Procedure: Person, scalp tumor excision, massive bleeding when the tumor is excised.
Person, acute renal failure, A-V fistula formation operation, masive bleeding. The operation of stopping bleeding consists of combing the powder with pressing with gauzes. […] At the end of the operation, most of black blood coagulation is wiped out with 4×4 gauze, and rinsed with Ringer's solution. It takes totally 5 minutes to stop the bleeding completely, as the surgeon keeps wiping away the coagulation. The patient's conditions are particularly well, better than without using this powder.
Person, skin contracture on the palm, which needs to be removed, and it requires skin graft. When the skin graft is removed from the hand, massive bleeding occurs. On applying sufficient powder to the bleeding area topically, it appears black coagulation on contact. […] Those that appears more black area indicate the more powder mixed up with the blood. Suture going on.
Person, paraanal excision, bleeding when it is opened up. […] Those that appears white are the powder that are not mixed up with the blood. Suture going on.
Person, paranal abscess Excision, massive bleeding when it is opened. […] The white color is the powder instantly not mixed up with the blood yet. Lastly, insert the long gauze into the anus.
Person, chronic hepatitis, has bleeding tendency, extraction of teeth causes massive bleeding.

human blood = assay: test tube black blood coagulation of human blood
Text: The present invention is directed to a method for stopping bleeding, comprising administering powdered D,L-threo-hex-2-enono-1,4-lactone tablets thereof to the wound site in an amount of 0.1568 grams for every milliliter of blood. This powder has a very potent coagulation action to stop bleeding when spraying topically on the bleeding area for any normal or diseased patients. When the powder comes in contact with the blood, the black tar like material is formed, and later becomes solid. The amount of the powder that is needed to react completely with the blood is proportional to the amount of the blood that comes out of the blood vessels. […] The artery bleeding needs much more this powder of interest. […] This is the same for normal, colon cancer and hemophilia patients; 1 ml of normal blood needs 0.1568 grams of D,L-threo-hex-2-enono-1,4-lactone powder, 1 ml of colon cancer needs 0.1568 grams of D,L-threo-hex-2-enono-1,4-lactone, 1 ml of hemophilia blood needs 0.1568 grams of D,L-threo-hex-2-enono-1,4-lactone. Sufficient powdered D,L-threo-hex-2-enono-1,4-lactone is particularly useful to stop bleeding in the case of diffuse capillary oozing and mistakenly cut off artery or arteries that can not be found during massive bleeding so as to save the patients's lives therefor. When D,L-threo-hex-2-enono-1,4-lactone is absorbed into the system, it is good for health by making the leucocytes stronger and slowing the aging process etc. However, at the end of operation before closure, the excessive black tar gel like material can be wiped away with Ringer's solution. Normal, liver Disease, Colon Cancer and Hemophilia Blood When tested in the tube, 1 milliliter of human blood requires 0.1568 grams of a composition comprising powdered D,L-threo-hex-2-enono-1,4-lactone to form black blood coagulation by shaking the tube with hand or stirrer machine. It takes 6 minutes to cause the black blood coagulation unmobile in the test tube for normal, liver diseases, colon cancer and hemophilia blood respectively.

venous bleeding = assay: vein bleeding in rat, one vein cut off; format: in vivo
gastric bleeding area = assay: bleeding area in rat after histamine-induced gastric acid secretion; format: in vivo; settings: rat after histamine injection; topical to bleeding area
Text: Thus this powder can treat the gastric ulcer bleeding when ingested orally.

## D,L-threo-hex-2-enono-1,4-lactone-2-propane
Finger scratch bleeding
  black blood coagulation / black color formation: the black blood coagulation was formed
  stopping of bleeding: bleeding was stopped on contact

## O=C1OC(C(O)CO)C(O)=C1OP(=O)(O)O [D,L-threo-hex-enono-1,4-lactone-2-phosphate]
Finger scratch bleeding
  black blood coagulation / black color formation: the black blood coagulation was formed
  stopping of bleeding: bleeding was stopped on contact

## CCCCCCCCCCCCCCCC(=O)OCC(O)C1OC(=O)C(O)=C1O [D,L-threo-hex-2-enono-1,4-lactone-6-palimitate]
Finger scratch bleeding
  black blood coagulation / black color formation: the black blood coagulation was formed
  stopping of bleeding: bleeding was stopped on contact

## O=C1OC(C(O)CO)C(O)=C1O [D,L-threo-hex-2-enono-1,4-lactone]
Bleeding nostril; rat nostril cut slightly
  amount of powder applied that stops bleeding: 0.0037 grams
Bleeding nostril; rat nostril, 0.0037 grams
  stopping of bleeding: the bleeding stops on contact
Finger scratch bleeding
  black blood coagulation / black color formation: the black color forms on contact
[1]; after 5-6 minutes
  bleeding after sticky tar like structure is wiped away: no bleeding at all
[1]; as soon as powder contacts the blood
  formation of black tar like material: formed in one second
[1]; rat femoral artery bleeding, sufficient powder
  time to stop bleeding: within one second
[1]; rat femoral artery cut off, poured topically, amount varies with rats
  amount of powder usually sufficient to stop bleeding: 0.1344 grams
Capillary bleeding; after 1 minute from adding the powder
  bleeding after adding the powder: no more bleeding at all
Capillary bleeding; rat, one capillary bleeding
  stopping of bleeding: stops the bleeding on contact; also recorded: within one second
Capillary bleeding; rat, one capillary cut off
  amount of powder that stops bleeding: about 0.0112 grams
[2]; A-V fistula plasty, acute renal failure, powder plus gauze pressing, coagulation repeatedly wiped away
  time to stop the bleeding completely: 5 min
[2]; extraction of teeth, chronic hepatitis, bleeding tendency
  stopping of bleeding: the bleeding in the socket stops on contact
[2]; extraction of tooth
  stopping of bleeding: the bleeding stops on contact
[2]; extraction of tooth, wiped out in 10 seconds
  persistence of stopped bleeding after wiping out black coagulation: stopped bleeding still persisted
[2]; paraanal abscess excision, massive bleeding, sprayed
  black blood coagulation formation: the black color is formed on contact
[2]; paraanal abscess excision, sprayed
  stopping of bleeding: it stops bleeding by forming black blood coagulation on contact
[2]; scalp tumor excision, massive bleeding, sprayed
  stopping of bleeding: the bleeding atops on contact
[2]; skin contracture excision with skin graft, massive bleeding
  stopping of bleeding: Bleeding stops at the same time as the black coagulation forms
Human blood; 0.1568 grams per 1 ml normal or diseased human blood
  time after which mixture does not move by shaking or pouring: 6 min
Human blood; colon cancer blood
  time to cause black blood coagulation unmobile in the test tube: 6 min
Human blood; hemophilia blood
  time to cause black blood coagulation unmobile in the test tube: 6 min
Human blood; liver diseases blood
  time to cause black blood coagulation unmobile in the test tube: 6 min
Human blood; normal blood
  time to cause black blood coagulation unmobile in the test tube: 6 min
Human blood; per 1 ml of colon cancer blood
  amount needed: 0.1568 grams
Human blood; per 1 ml of hemophilia blood
  amount needed: 0.1568 grams
Human blood; per 1 ml of normal blood
  amount needed: 0.1568 grams
Human blood; per 1 ml of normal or diseased human blood, test tube
  amount required to form black blood coagulation: 0.1568 grams
Venous bleeding; about 1½ minutes after wiping away
  bleeding after black coagulation is wiped away: no more bleeding
Venous bleeding; rat, one vein cut off
  amount of powder needed to stop bleeding: about 0.0224 grams
Venous bleeding; rat, one venous bleeding
  stopping of bleeding: stop bleeding on contact; also recorded: within one second
Gastric bleeding area
  black coagulation formation: the black coagulation formed, but slower than normal

## O=C1OC(C(O)CO)C(O)=C1OC(=O)c1ccccc1 [D,L-threo-hex-2-enono-1,4-lactone-2-benzoate]
Finger scratch bleeding
  black blood coagulation / black color formation: the black blood coagulation was formed
  stopping of bleeding: bleeding was stopped on contact
